Results reported in ChEMBL document CHEMBL5370607 (J Med Chem, 2023).
Activity calls are given as the source filed them. No cut-off for these calls is given here.

Key:
Rattus norvegicus = assay: Antialzheimer activity against scopolamine-induced cognitive impairment in Sprague-Dawley rat assessed as reduction in short-term memory deficits at 1 to 3 mg/kg, ip administered for 30 mins followed by scopolamine induction measured after 30 mins by NOR test; type: functional, organism-based; conditions: dose 1-3 mg/kg, time 60.0 min
[1] = biological target: T1, Amine oxidase [flavin-containing] B (Homo sapiens, UniProt P27338); conditions: 0.5 h, time 30 min
T1 sequence (P27338 whole entry): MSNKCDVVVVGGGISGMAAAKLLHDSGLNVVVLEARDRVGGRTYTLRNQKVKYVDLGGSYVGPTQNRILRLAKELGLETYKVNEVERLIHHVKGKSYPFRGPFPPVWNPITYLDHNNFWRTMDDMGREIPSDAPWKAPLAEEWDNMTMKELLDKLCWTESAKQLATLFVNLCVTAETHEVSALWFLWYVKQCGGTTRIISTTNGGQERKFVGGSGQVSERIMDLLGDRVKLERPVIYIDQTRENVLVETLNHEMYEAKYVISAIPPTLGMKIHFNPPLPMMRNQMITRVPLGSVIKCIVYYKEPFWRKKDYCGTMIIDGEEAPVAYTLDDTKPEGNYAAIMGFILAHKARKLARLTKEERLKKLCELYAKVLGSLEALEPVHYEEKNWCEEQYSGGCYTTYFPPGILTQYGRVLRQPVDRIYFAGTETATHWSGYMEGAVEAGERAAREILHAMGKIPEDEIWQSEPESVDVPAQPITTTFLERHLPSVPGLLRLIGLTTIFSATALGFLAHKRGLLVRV

| inhibition at 1 µM [1] | Compound | Activity (Rattus norvegicus) |
| --- | --- | --- |
|  | COc1cc2c(cc1OC)C(=O)C(CC1CCN(Cc3ccccc3)CC1)C2 (stereo not drawn) | Active |
| 3% | Clc1cccc(CNc2ccnc(N3CCNCC3)c2)c1 |  |
| 7% | Clc1cccc(CNc2cc(N3CCNCC3)nc3ccccc23)c1 |  |
